# Experimental data reported in patent US9085555B2, “Complement pathway modulators and uses thereof” (priority 2011, dated 2015).
# Target: Factor D (Homo sapiens (Human), UniProt P00746)
# Test: biochemical
# Assay type: biochemical
# Conditions: read-out: IC50
# Factor D, sequence (P00746 26-253): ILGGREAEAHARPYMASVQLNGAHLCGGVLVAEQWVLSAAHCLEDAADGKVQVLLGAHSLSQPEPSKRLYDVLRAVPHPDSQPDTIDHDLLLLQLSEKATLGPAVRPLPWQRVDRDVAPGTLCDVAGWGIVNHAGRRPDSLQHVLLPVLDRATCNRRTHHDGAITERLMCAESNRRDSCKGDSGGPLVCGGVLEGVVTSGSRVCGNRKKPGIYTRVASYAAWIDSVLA
row,SMILES,IC50 [nM]
1,"NC(=O)n1cc(NC(=O)N2C[C@H](F)C[C@H]2CNC(=O)Cc2ccccc2)c2ccccc21 [Example 113, 3-{[(2S,4R)-4-Fluoro-2-(phenylacetylamino-methyl)-pyrrolidine-1-carbonyl]-amino}-indole-1-carboxylic acid amide]",1150
2,"COC(=O)COc1ccc2c(c1)c(NC(=O)N1[C@@H]3C[C@@H]3C[C@H]1C(=O)NCc1cccc(Cl)c1F)cn2C(N)=O [Example 133, (1-carbamoyl-3-{[(1R,3S,5R)-3-(3-chloro-2-fluoro-benzylcarbamoyl)-2-azabicyclo[3.1.0]hexane-2-carbonyl]amino}-1H-indol-5-yloxy)-acetic acid methyl ester]",6
3,"CN(C)[C@@H]1CN(C(=O)Nc2cn(C(N)=O)c3ccccc23)[C@H](C(=O)NCc2cccc(Cl)c2F)[C@H]1F [Example 189, (2R,3S,4R)-4-Dimethylamino-3-fluoro-pyrrolidine-1,2-dicarboxylic acid 1-[(1-carbamoyl-1H-indol-3-yl)-amide] 2-(3-chloro-2-fluoro-benzylamide)]",942
4,"CN(C)C(=O)c1cc(Cl)c(F)c(CNC(=O)[C@@H]2C[C@@H](F)CN2C(=O)Nc2cn(C(N)=O)c3ccccc23)c1 [Example 277, (2S,4R)-4-Fluoro-pyrrolidine-1,2-dicarboxylic acid 1-[(1-carbamoyl-1H-indol-3-yl)-amide] 2-(3-chloro-5-dimethylcarbamoyl-2-fluoro-benzylamide)]",627
5,"NC(=O)n1cc(NC(=O)N2[C@@H]3C[C@@H]3C[C@H]2C(=O)N[C@H](CCO)c2cccc(Cl)c2F)c2ccccc21 [Example 223, (1R,3S,5R)-2-Azabicyclo[3.1.0]hexane-2,3-dicarboxylic acid 2-[(1-carbamoyl-1H-indol-3-yl)-amide] 3-{[(R)-1-(3-chloro-2-fluoro-phenyl)-3-hydroxy-propyl]-amide}]",12
6,"CO[C@H]1[C@@H](C(=O)NC2(c3cccc(Cl)c3)CC2)N(C(=O)Cn2cc(C(C)=O)c3ccccc32)C[C@@H]1F [Example 572, (2S,3S,4S)-1-[2-(3-Acetyl-indol-1-yl)-acetyl]-4-fluoro-3-methoxy-pyrrolidine-2-carboxylic acid [1-(3-chloro-phenyl)-cyclopropyl]-amide]",284
7,"NC(=O)c1cn(CC(=O)N2C[C@H](F)C[C@H]2C(=O)Nc2cccc(Cl)c2F)c2ccccc12 [Example 486, 1-{2-[(2S,4R)-2-(3-Chloro-2-fluoro-phenylcarbamoyl)-4-fluoro-pyrrolidin-1-yl]-2-oxo-ethyl}-1H-indole-3-carboxylic acid amide]",2450
8,"COc1cccc(CNC(=O)[C@@H]2C[C@H](N)CN2C(=O)Nc2cn(C(N)=O)c3ccccc23)c1 [Example 36, (2S,4S)-4-Amino-pyrrolidine-1,2-dicarboxylic acid 1-[(1-carbamoyl-1H-indol-3-yl)-amide] 2-(3-methoxy-benzylamide)]",3250
9,"NC(=O)n1cc(NC(=O)N2C[C@@H](N)C[C@H]2C(=O)NCc2ccc(-c3ccc(Cl)s3)s2)c2ccccc21 [Example 42, (2S,4S)-4-Amino-pyrrolidine-1,2-dicarboxylic acid 1-[(1-carbamoyl-1H-indol-3-yl)-amide] 2-[(5′-chloro-[2,2′]bithiophenyl-5-ylmethyl)-amide]]",2850
10,"CC(=O)c1cn(CC(=O)N2C[C@@H]3C[C@@H]3[C@H]2C(=O)N[C@H](CO)c2cccc(Cl)c2F)c2ccccc12 [Example 612, (1S,2S,5R)-3-[2-(3-Acetyl-indol-1-yl)-acetyl]-3-aza-bicyclo[3.1.0]hexane-2-carboxylic acid [(S)-1-(3-chloro-2-fluoro-phenyl)-2hydroxy-ethyl]-amide]",3430
11,"Cc1ccc(CNC(=O)[C@@H]2C[C@H](N)CN2C(=O)Nc2cn(C(N)=O)c3ccccc23)cc1Cl [Example 59, (2S,4S)-4-Amino-pyrrolidine-1,2-dicarboxylic acid 1-[(1-carbamoyl-1H-indol-3-yl)-amide] 2-(3-chloro-4-methyl-benzylamide)]",6400
12,"CC(=O)c1cn(CC(=O)N2C[C@](C)(F)C[C@H]2C(=O)NCc2cccc(Cl)c2F)c2ccncc12 [Example 502, (2S,4R)-1-[2-(3-Acetyl-pyrrolo[3,2-c]pyridin-1-yl)-acetyl]-4-fluoro-4-methyl-pyrrolidine-2-carboxylic acid 3-chloro-2-fluoro-benzylamide]",449
13,"COc1cc2c(C(N)=O)nn(CC(=O)N3[C@@H]4C[C@@H]4C[C@H]3C(=O)Nc3cccc(OC(F)(F)F)c3F)c2cn1 [Example 714, 1-{2-[(1R,3S,5R)-3-(2-Fluoro-3-trifluoromethoxy-phenylcarbamoyl)-2-aza-bicyclo[3.1.0]hex-2-yl]-2-oxo-ethyl}-5-methoxy-1H-pyrazolo[3,4-c]pyridine-3-carboxylic acid amide]",300
14,"CCc1cc2c(C(N)=O)nn(CC(=O)N3C[C@H](F)[C@@H](OC)[C@H]3C(=O)Nc3cccc(OC(F)(F)F)c3F)c2cn1 [Example 637, 5-Ethyl-1-{2-[(2S,3S,4S)-4-fluoro-2-(2-fluoro-3-trifluoromethoxy-phenylcarbamoyl)-3-methoxy-pyrrolidin-1-yl]-2-oxo-ethyl}-1H-pyrazolo[3,4-c]pyridine-3-carboxylic acid amide triflate]",9
15,"NC(=O)c1nn(CC(=O)N2[C@H](C(=O)Nc3cccc(Br)n3)C[C@@]3(CO)C[C@@H]23)c2ccccc12 [Example 760, 1-{2-[(1R,3S,5S)-3-(6-Bromo-pyridin-2-ylcarbamoyl)-5-hydroxymethyl-2-aza-bicyclo[3.1.0]hex-2-yl]-2-oxo-ethyl}-1H-indazole-3-carboxylic acid amide]",12
16,"NC(=O)c1nn(CC(=O)N2C[C@H](F)C[C@H]2C(=O)Nc2cccc(Br)n2)c2ccccc12 [Example 739, 1-{2-[(2S,4R)-2-(6-Bromo-pyridin-2-ylcarbamoyl)-4-fluoro-pyrrolidin-1-yl]-2-oxo-ethyl}-1H-indazole-3-carboxylic acid amide]",23
17,"NC(=O)n1cc(NC(=O)N2C[C@@H](N)C[C@H]2C(=O)NC[C@@H]2CCCC[C@@H]2O)c2ccccc21 [Example 76, (2S,4S)-4-Amino-pyrrolidine-1,2-dicarboxylic acid 1-[(1-carbamoyl-1H-indol-3-yl)-amide] 2-[((1S,2S)-2-hydroxy-cyclohexylmethyl)-amide]]",15600
18,"NC(=O)c1nn(CC(=O)N2[C@@H]3C[C@@H]3C[C@H]2C(=O)NCc2cccc(Cl)c2F)c2cnccc12 [Example 703, 1-(2-((1R,3S,5R)-3-((3-Chloro-2-fluorobenzyl)carbamoyl)-2-azabicyclo[3.1.0]hexan-2-yl)-2-oxoethyl)-1H-pyrazolo[3,4-c]pyridine-3-carboxamide]",10
19,"CC(=O)c1cn(CC(=O)N2[C@@H]3C[C@@H]3C[C@H]2C(=O)NCc2cccc(Cl)c2F)c2ncccc12 [Example 483, (1R,3S,5R)-2-[2-(3-Acetyl-pyrrolo[2,3-b]pyridin-1-yl)-acetyl]-2-aza-bicyclo[3.1.0]hexane-3-carboxylic acid 3-chloro-2-fluoro-benzylamide]",60
20,"CC(=O)c1nn(CC(=O)N2[C@@H]3C[C@@H]3C[C@H]2C(=O)NCc2cccc(Cl)c2F)c2cnccc12 [Example 627, (1R,3S,5R)-2-[2-(3-Acetyl-pyrazolo[3,4-c]pyridin-1-yl)-acetyl]-2-aza-bicyclo [3.1.0]hexane-3-carboxylic acid 3-chloro-2-fluoro-benzylamide]",16
